Values after ≈ are worked out from the molar mass of the structure shown.
Columns and labels:
[1] = test system: Candida albicans (ATCC GDH2346); assay: Fungus MIC assay (CLSI C27-A3); format: cell-based; conditions: RPMI/MOPS pH 7.0, 35 °C, 48 h; for MIC: Candida albicans
Experimental: (§1) Fungal strains included a clinical isolate of Candida albicans (ATCC GDH2346), Aspergillus fumigatus (ATCC MYA-3626), and Aspergillus flavus (ATCC 204304). Minimum inhibitory concentration (MIC) assays were carried out in 96-well plates using the Clinical and Laboratory Standards Institute (CLSI) method C27-A3 for C. albicans and M38-A2 for Aspergillus species. smHDPMs, each in stock solutions of 10 mM in DMSO, were diluted in 50 µL RPMI/MOPS pH 7.0 in a 96-well plate and 50 µL of diluted yeast were added to each well. […] The plate was then incubated at 35 °C for 48 h. […] All MIC assays were performed in duplicate.

[2] = test system: Escherichia coli [ATCC 25922]; assay: Bacterial MIC assay (Hancock modified broth assay); format: cell-based; conditions: cation-adjusted Mueller–Hinton, 18 h; for MIC: Escherichia coli, ATCC25922
Experimental: (§2) were tested for antibacterial activities against three Gram-negative bacteria (Escherichia coli [ATCC 25922], Pseudomonas aeruginosa [ATCC 10145], and Klebsiella pneumonia [ATCC 13883]) and two Gram-positive bacteria (Staphylococcus aureus [ATCC 27660] and Enterococcus faecalis [ATCC 29212]) using the Hancock modified broth assay. Three milliliters cation-adjusted Mueller-Hinton medium was inoculated with 20 μL of frozen bacterial stock and incubated at 37 °C on a shaker platform (250 rpm) overnight. […] All samples were done in duplicate. One set of control wells included broth-only samples with dilution buffer for testing sterility and providing blank values for the assay readings. Vehicle-control wells containing the bacterial suspension with DMSO (no compound) were also included. Following the overnight incubation (18 h), the cell growth was assessed by observing the presence of “acceptable growth”, defined by CLSI as a ≥2 mm button or definite turbidity. MIC was defined as the lowest concentration where acceptable growth is not observed.

[3] = test system: Enterococcus faecalis [ATCC 29212]; assay: Bacterial MIC assay (Hancock modified broth assay); format: cell-based; conditions: ATCC29212, cation-adjusted Mueller–Hinton, 18 h
Experimental: as §2

[4] = test system: Klebsiella pneumonia [ATCC 13883]; assay: Bacterial MIC assay (Hancock modified broth assay); format: cell-based; conditions: Klebsiella pneumoniae, ATCC13883; cation-adjusted Mueller–Hinton, 18 h
Experimental: as §2

[5] = test system: Staphylococcus aureus [ATCC 27660]; assay: Bacterial MIC assay (Hancock modified broth assay); format: cell-based; conditions: cation-adjusted Mueller–Hinton, 18 h; for MIC: Staphylococcus aureus, ATCC27660
Experimental: as §2

[6] = test system: Pseudomonas aeruginosa [ATCC 10145]; assay: Bacterial MIC assay (Hancock modified broth assay); format: cell-based; conditions: ATCC10145, cation-adjusted Mueller–Hinton, 18 h
Experimental: as §2

[7] = test system: Aspergillus fumigatus (ATCC MYA-3626); assay: Fungus MIC assay (CLSI M38-A2); format: cell-based; conditions: RPMI/MOPS pH 7.0, 35 °C, 48 h; for MIC: Aspergillus fumigatus
Experimental: as §1

[8] = test system: Aspergillus flavus (ATCC 204304); assay: Fungus MIC assay (CLSI M38-A2); format: cell-based; conditions: RPMI/MOPS pH 7.0, 35 °C, 48 h; for MIC: Aspergillus flavus, ATCC204304
Experimental: as §1

[9] = biological target: T1, MRGPRX2 (Homo sapiens, UniProt Q96LB1); assay: Degranulation (β-hexosaminidase release) in RBL-2H3 cells expressing MRGPRX2; format: cell-based; conditions: for EC50: RBL-2H3 cells stably expressing MRGPRX2, 30 min; for percentage degranulation (β-hexosaminidase release): 3 µM, 30 min, RBL-2H3 cells stably expressing MRGPRX2
T1 construct: HA (hemagglutinin)
T1 sequence (Q96LB1 1-330): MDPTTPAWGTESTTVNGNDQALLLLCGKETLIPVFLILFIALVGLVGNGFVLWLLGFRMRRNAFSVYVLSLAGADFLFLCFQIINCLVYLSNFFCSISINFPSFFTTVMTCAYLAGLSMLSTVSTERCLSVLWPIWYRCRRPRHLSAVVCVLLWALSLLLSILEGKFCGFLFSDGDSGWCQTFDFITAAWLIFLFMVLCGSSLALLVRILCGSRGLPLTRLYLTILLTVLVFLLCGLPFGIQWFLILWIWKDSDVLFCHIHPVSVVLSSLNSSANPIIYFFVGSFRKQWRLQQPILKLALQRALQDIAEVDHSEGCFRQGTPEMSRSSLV
Experimental: The human mast cell line, LAD2, was maintained in complete StemPro-34 medium supplemented with L-glutamine (2 mM), penicillin (100 IU/mL), streptomycin (100 μg/mL), and 100 ng/mL recombinant human stem cell factor (rhSCF). Hemidepletions were performed weekly with media containing rhSCF (100 ng/mL). Rat basophilic leukemia (RBL-2H3) cells were maintained as monolayer cultures in DMEM supplemented with 10% FBS, L-glutamine (2 mM), penicillin (100 IU/mL), and streptomycin (100 μg/mL). Peritoneal mast cells (PMCs) were obtained from 6–8 weeks old C57BL/6 and Mrgprb2^-/- (C57BL/6 background) mice using i.p. injection of 8 mL MC disassociation medium that was made of HBSS with 3% FCS and 10 mM HEPES. The cells were cultured in Iscove’s Modified Dulbecco’s Medium (IMDM) supplemented with 10% FCS, murine IL-3 (10 ng/mL), and murine SCF (30 ng/mL). After 48 h, the medium and the suspended cells were removed and replaced with fresh medium containing murine IL-3 (10 ng/mL) and murine SCF (30 ng/mL). The floating cells were then used for the experiment within 2–3 weeks. Bone-marrow-derived mast cells (BMMCs) were harvested by flushing bone marrow cells from the femurs of C57BL/6 mice and culturing the cells for 4–8 weeks in IMDM supplemented with 10% FCS, murine IL-3 (10 ng/mL). The cells were then used within 4–8 weeks.
Cells (2 ×10^6) were transfected with plasmids (2 µg/µL) encoding MRGPRX2 or MRGPRX2 missense mutants using the Amaxa kit V using Amaxa Nucleofector device according to the manufacturer’s protocol. For stable transfection, cells were cultured in the presence of G-418 (1 mg/mL) and used within one month of transfection. For transient transfection, cells were used within 16–20 h after transfection. To detect MRGPRX2 expression, cells (1 × 10^6) were incubated with the PE-conjugated anti-MRGPRX2 antibody, washed in FACS buffer, fixed, and analyzed on a BD LSR II flow cytometer.
RBL-2H3 cells (5 × 10^4), LAD2 cells (10 × 10^4), and PMCs (5 × 10^3), BMMCs (5 × 10^4), were seeded into 96-well plates in a total volume of 50 μl HEPES buffer containing 0.1% bovine serum albumin (BSA) and exposed to ligands for 30 min. Cells without treatment were designated as control. In some experiments, cells were treated with Pertussis toxin (PTx). For total β-hexosaminidase release, unstimulated cells were lysed in 50 μl of 0.1% Triton X-100. Aliquots (20 μl) of supernatants or cell lysates were incubated with 20 μl of 1 mM p-nitrophenyl-N-acetyl-β- D-glucosamine for 1 h at 37 °C. The reaction was stopped by adding 250 μl of a 0.1 M Na2CO3/0.1 M NaHCO3 buffer and absorbance was measured at 405 nm.

[10] = Cytotoxicity, MTS viability assay; format: cell-based, human; conditions: human, HepG2 cells (ATCC HB-8065); 1 h exposure in serum-free medium, MTS
Experimental: (§3) Cytotoxicity (50% […] concentration, CC50) was determined against mouse 3T3 fibroblasts (ATCC CRL-1658) and human transformed liver HepG2 cells (ATCC HB-8065) using an MTS viability assay according to the manufacturer’s protocol (Promega CellTiter 96 aqueous nonradioactive cell proliferation assay). Briefly, 3T3 cells were seeded at 2 × 10^4 cells/well in Dulbecco’s modified Eagle’s medium (DMEM) supplemented with 10% bovine calf serum and HepG2 cells were seeded at 3 × 10^4 cells/well in MEM supplemented with 10% fetal bovine serum. After 24 h of growth, the culture medium was replaced with medium lacking serum, and eight two-folds dilutions of each of the five compounds were added. […] Following incubation for 1 h at 37 °C, compound solutions were removed and medium containing serum was replenished. Viability was determined by addition of the tetrazolium compound, MTS, and the electron coupling agent, PMS, and then incubation at 37 °C for 2 h (3T3 cells) or 3 h (HepG2 cells) followed by absorbance measurements at 490 nm. The CC50 was calculated using GraphPad Prism software (nonlinear fit).

[11] = test system: human transformed liver HepG2 cells (ATCC HB-8065); assay: Cytotoxicity, MTS viability assay; format: cell-based
Experimental: as §3

[12] = test system: mouse 3T3 fibroblasts (ATCC CRL-1658); assay: Cytotoxicity, MTS viability assay; format: cell-based; conditions: for fold less cytotoxic than Compound 2: CC50 in 3T3 and HepG2 cells relative to Compound 2
Experimental: as §3

[13] = Cytotoxicity, MTS viability assay; format: cell-based, mouse; conditions: mouse, 3T3 fibroblasts (ATCC CRL-1658); 1 h exposure in serum-free medium, MTS
Experimental: as §3

[14] = test system: methicillin-resistant S. aureus (MRSA); design: method as in PMID 26501484; conditions: cited from earlier work

| SMILES | MIC [1] [µg/mL] | MIC C. albicans [1] [µg/mL] | MIC [2] [µg/mL] | MIC [3] [µg/mL] | MIC [4] [µg/mL] | MIC [5] [µg/mL] | MIC [6] [µg/mL] | MIC [7] [µg/mL] | MIC A. fumigatus [7] [µg/mL] | MIC [8] [µg/mL] | MIC A. flavus [8] [µg/mL] | EC50 [9] [µM] | CC50 at 1 h [10] [µM] | cytotoxic effects on HepG2 cells at concentrations relevant for antifungal activity [11] | cytotoxic effects on 3T3 cells at concentrations relevant for antifungal activity [12] | CC50 at 1 h [13] [µM] | percentage degranulation (β-hexosaminidase release) [9] | fold less cytotoxic than Compound 2 [12] | further results |
| --- | --- | --- | --- | --- | --- | --- | --- | --- | --- | --- | --- | --- | --- | --- | --- | --- | --- | --- | --- |
| N=C(N)N1CC=C(c2ccc(-c3nnc(-c4ccc(C5=CCN(C(=N)N)CC5)cc4)o3)cc2)CC1 [Compound 2] | 0.39 (≈ 0.832 µM) | 0.39 (≈ 0.832 µM) | 3.1 (≈ 6.62 µM) | > 100 | > 100 | 0.1 (≈ 0.213 µM) | > 100 | 0.39 (≈ 0.832 µM) | 0.39 (≈ 0.832 µM) | 0.39 (≈ 0.832 µM) | 0.39 (≈ 0.832 µM) | 3 | 151 | little to no cytotoxic effects | little to no cytotoxic effects | 124 | – | – | Bacterial MIC Escherichia coli [2]: 3.1 µg/mL; Bacterial MIC Staphylococcus aureus [5]: 0.1 µg/mL |
| Cc1c(-c2ccc(N3CCNCC3)cc2)ncnc1-c1ccc(N2CCNCC2)cc1 [Compound 4] | > 100 | – | > 100 | > 100 | > 100 | > 100 | > 100 | > 100 | – | > 100 | – | 0.4 | > 1560 | – | – | 883 | 20–25% | 2–10 fold | – |
| c1cc(-c2ccc(N3CCNCC3)cc2)cc(-c2ccc(N3CCNCC3)cc2)n1 [Compound 5] | > 100 | – | > 100 | > 100 | > 100 | > 100 | > 100 | > 100 | – | > 100 | – | 0.38 | 447 | – | – | 200 | 20–25% | 2–10 fold | – |
| N=C(N)NCCCCC(=O)Nc1cc(C(F)(F)F)cc(NC(=O)c2cc(C(=O)Nc3cc(C(F)(F)F)cc(NC(=O)CCCCNC(=N)N)c3O[C@@H]3CCNC3)ncn2)c1O[C@@H]1CCNC1 [Brilacidin] | – | – | – | – | – | – | – | – | – | – | – | – | – | – | – | – | – | – | efficacy in rabbit model of MRSA-induced keratitis [14]: displays efficacy |
| C1=C(c2ccc(-c3cn(-c4ccc(C5=CCNCC5)cc4)nn3)cc2)CCNC1 [Compound 3] | > 100 | > 100 | – | – | – | – | – | > 100 | > 100 | > 100 | > 100 | 1.8 | 111 | – | – | 60 | – | – | – |
| Cc1cc(C#CCNC(=N)N)ccc1-c1nnc(-c2ccc(C#CCNC(=N)N)cc2)o1 [Compound 1] | 0.78 to 1.56 (≈ 1.83 to 3.66 µM) | – | – | – | – | – | – | 12.5 to 50 (≈ 29.3 to 117 µM) | 12.5 to 50 | 6.25 (≈ 14.7 µM) | – | 0.8 | 257 | little to no cytotoxic effects | little to no cytotoxic effects | 209 | – | – | – |

Source: paper PMC6523814, “Small-Molecule Host-Defense Peptide Mimetic Antibacterial and Antifungal Agents Activate Human and Mouse Mast Cells via Mas-Related GPCRs” (Cells, 2019)
